In patent US10982100B2, “Slippery liquid-infused porous surfaces and biological applications thereof” (President and Fellows of Harvard College, priority 2011, dated 2021):
Read-outs that look alike come from different tables or passages of the source.

Tests used:
P. aeruginosa = settings: 1% and 0.1% concentrations; 3, 6, 9, and 30 hours; 550 nm
[1] = tested on: Pseudomonas aeruginosa (PA-14)
Description: (§1) The toxicity screening assay was based on adding 1% and 0.01% of each commercial product to 10 mL aliquots of tryptone broth, which were inoculated with 1% initial seeding concentration of Pseudomonas aeruginosa (PA-14) preculture and incubated at 37° C. overnight in an orbital shaker. The shaken culture was serially diluted, plated, and incubated for colony forming unit (CFU) quantification.

[2] = Contact angles of various liquids on flat solids; format: physicochemical; set-up: unit not given here
Description: The behavior of liquids on surfaces is described by an equilibrium contact angle. An equilibrium contact angle, θ, is the angle at which a liquid/vapor interface meets a solid surface, which is determined by the interactions across the three interfaces, e.g., solid/liquid/vapor. […] The upper limit is known as the apparent advancing contact angle (θA), whereas the lower limit is referred as the apparent receding contact angle (θR). The difference between these values is known as contact angle hysteresis (i.e., Δθ=θA−θR, where θA≥θ≥θR), which characterizes the liquid repellency of a surface. Conventionally, equilibrium contact angle can be roughly estimated by the average of the advancing and receding angles (i.e., θ=(θA+θR)/2), or by a static contact angle, θstatic (i.e., θ=θstatic).
In practice, contact angle measurement can be performed by a number of different well-established techniques, such as the sessile drop method and the Wilhelmy method. In particular, the sessile drop method is among the most popular technique for contact angle measurement. In this technique, a liquid droplet is deposited on a targeted solid surface, where the liquid profile is captured by an optical system of a goniometer and geometrically fitted to obtain the contact angle. The contact angle measured from a static liquid droplet deposited on the surface is known as the static contact angle, θstatic. Using the same system, advancing contact angle, θA, can be measured while the volume of the drop is increasing until the wetting line starts to advance. Receding contact angle, θR, can be measured by decreasing the volume of the drop and determining the contact angle just before the wetting line recedes. Alternatively, the advancing and the receding angles of the liquid drop can also be determined by gradually tilting the solid surface until the liquid drop starts to move.

[3] = tested on: Pseudomonas aeruginosa (PA-14); experiment: Toxicity screening of lubricating fluids by CFU quantification; settings: 1% versus 0.01% of product in tryptone broth, 37° C. overnight, orbital shaker
Description: as §1

[4] = Surface tension of polar and non-polar liquids; format: physicochemical
From the text: Fluid-fluid interfacial tension can be measured by many well-established techniques, such as the Wilhelmy plate method, the Du Noüy ring method, and the pendant drop method (e.g., see Drelich et al., in Encyclopedia of Surface and Colloid Science, pp. 3152-3166, Marcel Dekker Inc, 2002, the contents of which is incorporated by reference herein in its entirety). Among all of the techniques, the pendant drop method is among the most popular and versatile technique, which can be easily extended to a two-liquid system. The pendant drop method measures the shape of a fluid-fluid interface and quantifies the shape distortion due to the competition between the fluid-fluid interfacial tension and gravity. In practice, a drop of denser fluid (e.g., Object A) is suspended by a syringe needle in medium X (i.e., air/water/the lubricating fluid). Owing to the influence of gravity, the denser liquid droplet will be deformed as the liquid volume increases. The shape profile of the liquid droplet is captured by an optical system and subsequently analyzed by a computer software when the liquid volume is increased to the maximum possible size (i.e., before the liquid drop is detached from the syringe needle). The interfacial tension of the fluid-fluid interface, γ, can then be deduced from the formula, γ=ΔρgD^2/H, where Δρ is the density difference between the two immiscible fluids, g is gravity, D is equatorial diameter of the liquid droplet, and H is drop shape dependent parameters which is a function of the shape profile of the droplet.

[5] = Leaching of infiltrated oil in a microfluidic system under water flow; format: physicochemical
Description: Experiments were conducted to determine whether fluid from SLIPS leach into the surrounding biological fluid. A nanostructured post array surface (2 μm tall posts, 300 nm diameter, 0.9 μm spacing) with infiltrated perfluorinated oil (Fluorinert FC-70) was integrated into a microfluidic system. Deionized water flowed into the channel at a rate of 12 mL/min (i.e., 720 mL/hr) for 5 minutes. […] The slipperiness of the surface was examined by putting a droplet of decane on the surface. If decane applied to the surface maintains its mobility on the surface, then the lubricants remain attached on the structured surface. However, if decane remains pinned on the surface, the lubricant layer has not been maintained. Leaching can also be monitored by extracting fluid that has passed over SLIPS into a fluorinated solvent followed by followed by chromatography and mass spectrometry and 19F-NMR.
Defining maximum leaching of the infiltrated fluid as the ratio between the total amounts of the perfluorinated oil infiltrated the surface and the volume of water processed in the microfluidic system, the maximum leaching was <0.2%. Because perfluorocarbons are already approved by the Food and Drug Administration as blood substitutes, leaching of this amount of oil is expected to be harmless. […]

[6] = flat solid S. (silanized epoxy)

SMILES	bacterial growth (optical densities) compared to control culture (P. aeruginosa)	toxicity screening, CFU [1]	Measured contact angle θadv ([2]; flat solid Epoxy)	Measured contact angle θrec ([2]; flat solid Epoxy)	Measured contact angle θstatic ([2]; flat solid Epoxy)	Measured contact angle θadv [2, 6]	Measured contact angle θrec [2, 6]	Measured contact angle θstatic [2, 6]	toxicity screening, CFU [3]	Surface Tension [4]	retention of infiltrated oil on nanostructured surface ([5]; deionized water 12 mL/min for 5 minutes, nanostructured post array)	maximum leaching ([5]; ratio of total infiltrated oil to volume of water processed)
FC1(F)C(F)(F)C(F)(F)C2(F)C(F)(F)C(F)(F)C(F)(F)C(F)(F)C2(F)C1(F)F (stereo not shown) [Perfluorodecalin]	statistically indistinguishable bacterial growth	Significantly reduced CFU	–	–	–	–	–	–	–	–	–	–
FC(F)(F)C(F)(F)C(F)(F)C(F)(F)C(F)(F)N(C(F)(F)C(F)(F)C(F)(F)C(F)(F)C(F)(F)F)C(F)(F)C(F)(F)C(F)(F)C(F)(F)C(F)(F)F [FC-70, perfluoro-tripentylamine]	statistically indistinguishable bacterial growth	–	35.1 ± 0.6	26.7 ± 1.4	33.5 ± 1.1	23.7 ± 4.1	0.0 ± 0.0	14.1 ± 0.8	Significantly reduced CFU	17.1 ± 0.3 mN/m	remained intact	< 0.2%
